Assays:
[1] = molecular target: T1, Full length wild-type cereblon CRBN (Homo sapiens, UniProt Q96SW2); assay: Fluorescence polarization (FP) assay indicating cereblon binding; details: bound stated; read-out: IC50 value
T1 construct: Full length wild-type cereblon CRBN (80.0 nM, 10 μL) was incubated in assay buffer
Method in brief: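 Full-length wild-type CRBN at 80.0 nM was preincubated 30 min at room temperature with compound (12-point curve, 300–0.937 or 3000–9.3 nM) in 20 mM HEPES pH 8.0, 150 NaCl, 0.5 mM TCEP, 0.05% Tween 20. Cy5-type thalidomide-based probe added at 5 nM final; FP read after 12 h (ex 590/em 675 nm), normalized to DMSO, IC50 fitted.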

GSPT1 = GSPT1 (Homo sapiens, UniProt P15170+Q96SW2); assay: GSPT1 degradation immunofluorescence assay in CAL-51 cells; type: cell-based; parameters: endogenous in cells; host or cells: CAL-51 (DSMZ ACC302); details: 6 hours, Table 4, read-out: Activity for GSPT1 degradation, Code (DC50)
GSPT1, sequence (P15170 whole entry): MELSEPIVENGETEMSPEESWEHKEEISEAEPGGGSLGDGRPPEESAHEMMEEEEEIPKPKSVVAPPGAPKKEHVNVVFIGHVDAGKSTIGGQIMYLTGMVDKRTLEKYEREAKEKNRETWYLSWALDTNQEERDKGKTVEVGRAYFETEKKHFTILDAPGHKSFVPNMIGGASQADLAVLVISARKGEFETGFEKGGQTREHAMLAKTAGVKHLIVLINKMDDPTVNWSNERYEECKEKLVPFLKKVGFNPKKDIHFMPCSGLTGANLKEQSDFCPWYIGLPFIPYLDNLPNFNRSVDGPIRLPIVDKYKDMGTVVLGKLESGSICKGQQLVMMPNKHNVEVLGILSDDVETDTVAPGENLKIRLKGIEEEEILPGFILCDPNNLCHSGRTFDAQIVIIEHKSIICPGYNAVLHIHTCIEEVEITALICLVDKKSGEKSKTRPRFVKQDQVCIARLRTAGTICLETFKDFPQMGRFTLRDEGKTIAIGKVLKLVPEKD
GSPT1, sequence (Q96SW2 whole entry): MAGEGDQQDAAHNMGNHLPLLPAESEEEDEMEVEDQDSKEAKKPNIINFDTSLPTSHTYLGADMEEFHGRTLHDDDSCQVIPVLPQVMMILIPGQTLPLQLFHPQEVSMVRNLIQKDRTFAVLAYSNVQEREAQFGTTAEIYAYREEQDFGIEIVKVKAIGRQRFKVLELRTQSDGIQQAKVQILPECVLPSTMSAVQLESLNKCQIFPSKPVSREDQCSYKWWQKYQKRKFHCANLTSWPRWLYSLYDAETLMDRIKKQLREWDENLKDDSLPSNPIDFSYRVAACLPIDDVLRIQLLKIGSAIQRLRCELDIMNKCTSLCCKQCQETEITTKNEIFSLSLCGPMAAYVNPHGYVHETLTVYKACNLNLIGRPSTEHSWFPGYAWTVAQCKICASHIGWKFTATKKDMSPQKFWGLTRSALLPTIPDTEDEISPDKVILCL
GSPT1, sequence (Q16531 whole entry partner): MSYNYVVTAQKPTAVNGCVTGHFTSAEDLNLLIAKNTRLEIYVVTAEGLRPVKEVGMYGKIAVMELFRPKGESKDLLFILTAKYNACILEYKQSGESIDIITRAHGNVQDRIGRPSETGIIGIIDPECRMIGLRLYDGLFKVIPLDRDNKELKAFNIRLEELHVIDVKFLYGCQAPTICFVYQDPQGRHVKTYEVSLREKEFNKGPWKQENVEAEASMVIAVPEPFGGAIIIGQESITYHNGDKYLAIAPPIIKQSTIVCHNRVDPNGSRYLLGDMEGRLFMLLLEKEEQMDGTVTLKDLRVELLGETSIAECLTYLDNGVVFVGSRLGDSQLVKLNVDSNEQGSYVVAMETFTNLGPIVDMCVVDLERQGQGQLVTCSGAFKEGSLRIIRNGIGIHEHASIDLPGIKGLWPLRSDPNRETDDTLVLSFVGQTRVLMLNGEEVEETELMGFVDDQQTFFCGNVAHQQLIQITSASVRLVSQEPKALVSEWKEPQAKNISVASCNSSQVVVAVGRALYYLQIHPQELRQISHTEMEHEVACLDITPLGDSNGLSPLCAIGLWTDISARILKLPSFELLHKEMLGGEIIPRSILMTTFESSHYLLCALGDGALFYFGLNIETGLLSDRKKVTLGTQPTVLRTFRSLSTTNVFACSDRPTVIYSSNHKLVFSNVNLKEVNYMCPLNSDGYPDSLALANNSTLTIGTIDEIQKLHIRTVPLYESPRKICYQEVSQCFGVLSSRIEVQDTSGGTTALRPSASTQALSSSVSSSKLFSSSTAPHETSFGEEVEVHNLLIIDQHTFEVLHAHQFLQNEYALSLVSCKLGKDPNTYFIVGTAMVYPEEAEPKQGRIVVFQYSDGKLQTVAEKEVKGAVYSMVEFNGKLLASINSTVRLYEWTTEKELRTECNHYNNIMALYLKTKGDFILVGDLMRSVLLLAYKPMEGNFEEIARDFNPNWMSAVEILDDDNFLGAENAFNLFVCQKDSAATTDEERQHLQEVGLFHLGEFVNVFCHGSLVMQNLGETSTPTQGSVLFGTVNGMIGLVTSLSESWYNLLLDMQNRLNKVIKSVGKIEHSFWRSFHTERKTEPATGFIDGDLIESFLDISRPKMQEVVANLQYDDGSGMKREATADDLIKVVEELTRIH
Method in brief: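 CAL-51 cells on fibronectin treated 6 h with compound (typically 30 μM to 0.1 nM), then fixed, permeabilised and immunostained for GSPT1, with phalloidin and DAPI. High-content imaging gave mean GSPT1 intensity per segmented cell. DC50 from non-linear regression after normalisation to DMSO and CC-885 (10 μM) controls.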

T1 sequence (Q96SW2 whole entry): as the sequence (Q96SW2 whole entry) above

SMILES	IC50 [1] [nM]	DC50 (GSPT1) [nM]
Cc1ccc(NC(=O)NCc2ccc3c(c2)C(=O)N(C2CCC(=O)NC2=O)C3)cc1Cl (stereo not shown) [Compound 8]	< 1100	≤ 100
Cc1c(Cl)cc(NC(=O)NCc2ccc3c(c2)C(=O)N(C2CCC(=O)NC2=O)C3)cc1CN1C2CCC1COC2 (stereo not shown) [Compound 138]	< 1100	≤ 100

Reference: US20240261274A1, “TREATMENT OF MYC-DRIVEN CANCERS WITH GSPT1 DEGRADERS” (MONTE ROSA THERAPEUTICS, INC., priority 2021, published 2024)
